According to US11634425B2, “Pharmaceutical compounds” (priority 2019, dated 2023):
Where two headings read alike, the source gives them in different places.

Columns and labels:
in vitro [1] = assay type: in vitro ADME; details: hepatocytes, 3 μM compound, read-out: Liver Hepatocyte Stability t1/2
Experimental: Compounds were subjected to the following assays to investigate liver microsomal stability and hepatocyte stability.
Hepatocyte Incubation: Experimental Procedure
Cryopreserved pooled hepatocytes were purchased from a reputable commercial supplier and stored in liquid nitrogen prior to use. Williams E media supplemented with 2 mM L-glutamine and 25 mM HEPES and test compound (final substrate concentration 3 μM; final DMSO concentration 0.25%) are pre-incubated at 37° C. prior to the addition of a suspension of cryopreserved hepatocytes (final cell density 0.5×10^6 viable cells/mL in Williams E media supplemented with 2 mM L-glutamine and 25 mM HEPES) to initiate the reaction. The final incubation volume is 500 μL. Two control compounds were included with each species, alongside appropriate vehicle control. The reactions are stopped by transferring 50 μL of incubate to 100 μL acetonitrile containing internal standard at the appropriate time points. Samples were removed at 6 time points (0, 5, 15, 30, 45 and 60 min) over the course of a 60 min experiment. The termination plates are centrifuged at 2500 rpm at 4° C. for 30 min to precipitate the protein. Following protein precipitation, the sample supernatants were combined in cassettes of up to 4 compounds and analysed using generic LC-MS/MS conditions. From a plot of ln peak area ratio (compound peak area/internal standard peak area) against time, the gradient of the line is determined. Subsequently, half-life (t1/2) and intrinsic clearance (CLint) were calculated.

in vitro [2] = assay type: in vitro ADME; details: microsomes, pH 7.4, 1 μM compound, 0.5 mg/mL protein, read-out: Liver Microsomal Stability t1/2
In short: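 Pooled liver microsomes (0.5 mg/mL protein) in 0.1 M phosphate pH 7.4 with 1 μM compound and 1 mM NADPH at 37° C., sampled at 0–45 min; minus-NADPH control at 45 min. Acetonitrile quench, LC-MS/MS; t1/2 and CLint from ln peak-area ratio vs time slope.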

RSV A2 = assay: RSV plaque reduction assay; assay type: cell-based, respiratory syncytial virus (RSV); details: human respiratory syncytial virus, HepG2, Hep-G2 cells, mean of at least two experiments
In short: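 EC50 is the 50% reduction in immunostained plaque count versus virus-control wells, interpolated from variable-slope 4-parameter fits and averaged over at least two runs. Hep-G2 cells were infected with 100 PFU/well RSV A2 premixed with compound, with the inoculum removed after 2 h. Incubation continued at 37 °C for 2 days under a CMC overlay with compound.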

Cell cytotoxicity (CC50) = assay type: cell-based; details: human; mean of at least two experiments
In short: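 Values are means of ≥2 independent runs, rounded to whole units, from 4-parameter variable-slope curve fits. Toxicity measured in Hep-G2 cells run alongside RSV plaque-reduction assays.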

SMILES | half-life at 3 μM (in vitro [1]; dog) | half-life at 3 μM (in vitro [1]; human) | half-life at 3 μM (in vitro [1]; rat) | half-life at 1 μM (in vitro [2]; dog) | half-life at 1 μM (in vitro [2]; human) | half-life at 1 μM (in vitro [2]; rat) | EC50 (RSV A2) | CC50 (Cell cytotoxicity (CC50))
O=C(N[C@H]1N=C(c2ccccc2)c2cccc(F)c2NC1=O)c1c(-c2ccccc2F)nc2cccnn12 [Example 18, N-[(3S)-9-fluoro-2-oxo-5-phenyl-1,3-dihydro-1,4-benzodiazepin-3-yl]-2-(2-fluorophenyl)imidazo[1,2-b]pyridazine-3-carboxamide] | 127 min | 694 min | 66.4 min | 414 min | 741 min | 50.3 min | 28 nM | > 25 µM
Cc1ccc2nc(-c3ccccc3)c(C(=O)N[C@H]3N=C(c4ccccc4)c4cccc(F)c4NC3=O)n2n1 [Example 93, N-[(3S)-9-Fluoro-2-oxo-5-phenyl-1,3-dihydro-1,4-benzodiazepin-3-yl]-6-methyl-2-phenylimidazo[1,2-b]pyridazine-3-carboxamide] | 445 min | 294 min | 71.5 min | 1420 min | 2090 min | 41.1 min | 33 nM | > 25 µM
COc1ccc2nc(-c3ccncc3F)c(C(=O)N[C@H]3N=C(c4ccccc4)c4cccc(F)c4NC3=O)n2n1 [Example 119, N-[(3S)-9-fluoro-2-oxo-5-phenyl-1,3-dihydro-1,4-benzodiazepin-3-yl]-2-(3-fluoropyridin-4-yl)-6-methoxyimidazo[1,2-b]pyridazine-3-carboxamide] | 295 min | > 186 min | 118 min | 444 min | 161 min | 51.8 min | 28 nM | > 25 µM
O=C(N[C@H]1N=C(c2ccccc2)c2cccc(F)c2NC1=O)c1c(-c2ccccc2F)nn2cccnc12 [Example 3, N-[(3S)-9-fluoro-2-oxo-5-phenyl-1,3-dihydro-1,4-benzodiazepin-3-yl]-2-(2-fluorophenyl)pyrazolo[1,5-a]pyrimidine-3-carboxamide] | > 186 min | 257 min | 81.7 min | > 140 min | 330 min | > 140 min | 90 nM | > 25 µM
O=C(N[C@H]1N=C(c2ccccc2)c2cccc(F)c2NC1=O)c1c(-c2ccc(C3CC3)nc2)nn2cccnc12 [Example 30, 2-(6-Cyclopropylpyridin-3-yl)-N-[(3S)-9-fluoro-2-oxo-5-phenyl-1,3-dihydro-1,4-benzodiazepin-3-yl]pyrazolo[1,5-a]pyrimidine-3-carboxamide] |  |  |  | 293 min | 181 min | 266 min | 62 nM | > 25 µM
O=C(N[C@H]1N=C(c2ccccc2)c2cccc(F)c2NC1=O)c1c(-c2cc(F)ccc2F)nn2cccnc12 [Example 7, 2-(2,5-Difluorophenyl)-N-[(3S)-9-fluoro-2-oxo-5-phenyl-1,3-dihydro-1,4-benzodiazepin-3-yl]pyrazolo[1,5-a]pyrimidine-3-carboxamide] |  |  |  | 150 min | 644 min | 125 min | 107 nM | > 25 µM
O=C(N[C@H]1N=C(c2ccccc2)c2cccc(F)c2NC1=O)c1c(-c2ccc(N3CCOCC3)nc2)nn2cccnc12 [Example 72, N-[(3S)-9-fluoro-2-oxo-5-phenyl-1,3-dihydro-1,4-benzodiazepin-3-yl]-2-(6-morpholin-4-ylpyridin-3-yl)pyrazolo[1,5-a]pyrimidine-3-carboxamide] |  |  |  | 51.4 min | 180 min | 158 min | 118 nM | > 25 µM
CC(C)Nc1ccc(-c2nn3cccnc3c2C(=O)N[C@H]2N=C(c3ccccc3)c3ccccc3NC2=O)c(F)n1 [Example 69, 2-[2-Fluoro-6-(propan-2-ylamino)pyridin-3-yl]-N-[(3S)-2-oxo-5-phenyl-1,3-dihydro-1,4-benzodiazepin-3-yl]pyrazolo[1,5-a]pyrimidine-3-carboxamide] |  |  |  | 26.8 min | 193 min | 146 min | 19 nM | > 25 µM
O=C(N[C@H]1N=C(c2ccccc2)c2ccccc2NC1=O)c1c(-c2ccc(C3CC3)nc2)nn2cccnc12 [Example 29, 2-(6-Cyclopropylpyridin-3-yl)-N-[(3S)-2-oxo-5-phenyl-1,3-dihydro-1,4-benzodiazepin-3-yl]pyrazolo[1,5-a]pyrimidine-3-carboxamide] |  |  |  | 73.9 min | 313 min | 909 min | 72 nM | > 25 µM
Cc1ccc2nc(-c3ccc(F)cn3)c(C(=O)N[C@H]3N=C(c4ccccc4)c4cccc(F)c4NC3=O)n2n1 [Example 78, N-[(3S)-9-fluoro-2-oxo-5-phenyl-1,3-dihydro-1,4-benzodiazepin-3-yl]-2-(5-fluoropyridin-2-yl)-6-methylimidazo[1,2-b]pyridazine-3-carboxamide] |  |  |  | 250 min | 230 min | 55.4 min | 81 nM | > 25 µM
COc1ccc2nc(-c3cncc(C)c3)c(C(=O)N[C@H]3N=C(c4ccccc4)c4cccc(F)c4NC3=O)n2n1 [Example 118, N-[(3S)-9-fluoro-2-oxo-5-phenyl-1,3-dihydro-1,4-benzodiazepin-3-yl]-6-methoxy-2-(5-methylpyridin-3-yl)imidazo[1,2-b]pyridazine-3-carboxamide] |  |  |  | 143 min | 119 min | 48.5 min | 59 nM | > 25 µM
Cc1ccn2nc(-c3ccccc3F)c(C(=O)N[C@H]3N=C(c4ccccc4)c4cccc(F)c4NC3=O)c2n1 [Example 23, N-[(3S)-9-Fluoro-2-oxo-5-phenyl-1,3-dihydro-1,4-benzodiazepin-3-yl]-2-(2-fluorophenyl)-5-methylpyrazolo[1,5-a]pyrimidine-3-carboxamide] | 214 min | 519 min | 70.9 min | 902 min | 399 min | 33.3 min | 21 nM | > 25 µM
O=C(N[C@H]1N=C(c2ccccc2)c2ccccc2NC1=O)c1c(-c2ccc(NC3CC3)nc2F)nn2cccnc12 [Example 48, 2-[6-(Cyclopropylamino)-2-fluoropyridin-3-yl]-N-[(3S)-2-oxo-5-phenyl-1,3-dihydro-1,4-benzodiazepin-3-yl]pyrazolo[1,5-a]pyrimidine-3-carboxamide] |  |  |  | 22.2 min | 888 min | 217 min | 13 nM | > 25 µM
Cc1ccc2nc(-c3ccccc3F)c(C(=O)N[C@H]3N=C(c4ccccc4)c4cccc(F)c4NC3=O)n2n1 [Example 19, N-[(3S)-9-fluoro-2-oxo-5-phenyl-1,3-dihydro-1,4-benzodiazepin-3-yl]-2-(2-fluorophenyl)-6-methylimidazo[1,2-b]pyridazine-3-carboxamide] | > 186 min | 121 min | 95.8 min | > 140 min | > 140 min | 28.6 min | 31 nM | > 25 µM
Cc1ccc2nc(-c3ccc(F)cc3F)c(C(=O)N[C@H]3N=C(c4ccccc4)c4cccc(F)c4NC3=O)n2n1 [Example 91, 2-(2,4-Difluorophenyl)-N-[(3S)-9-fluoro-2-oxo-5-phenyl-1,3-dihydro-1,4-benzodiazepin-3-yl]-6-methylimidazo[1,2-b]pyridazine-3-carboxamide] |  |  |  | 268 min | 101 min | 36.6 min | 17 nM | > 25 µM
CCc1ccc(-c2nn3cccnc3c2C(=O)N[C@H]2N=C(c3ccccc3)c3ccccc3NC2=O)cn1 [Example 54, 2-(6-Ethylpyridin-3-yl)-N-[(3S)-2-oxo-5-phenyl-1,3-dihydro-1,4-benzodiazepin-3-yl]pyrazolo[1,5-a]pyrimidine-3-carboxamide] |  |  |  | 79 min | 175 min | 77 min | 151 nM | > 25 µM
